Measured values as given in patent publication US7786141B2 (Vertex Pharmaceuticals Incorporated, priority 2004, dated 2010).

Tests used:
[1] = target: T1, M1 muscarinic receptor (Homo sapiens, UniProt P11229); test: Functional mobilization of intracellular calcium (FLIPR) in M1-CHO cells; assay type: cell-based; conditions: M1 receptor, calcium mobilization; for Emax: read-out: M1 Efficacy
T1 construct: expressed in transfected cells; host or cells: CHO (M1-CHO)
T1 sequence (P11229 1-460): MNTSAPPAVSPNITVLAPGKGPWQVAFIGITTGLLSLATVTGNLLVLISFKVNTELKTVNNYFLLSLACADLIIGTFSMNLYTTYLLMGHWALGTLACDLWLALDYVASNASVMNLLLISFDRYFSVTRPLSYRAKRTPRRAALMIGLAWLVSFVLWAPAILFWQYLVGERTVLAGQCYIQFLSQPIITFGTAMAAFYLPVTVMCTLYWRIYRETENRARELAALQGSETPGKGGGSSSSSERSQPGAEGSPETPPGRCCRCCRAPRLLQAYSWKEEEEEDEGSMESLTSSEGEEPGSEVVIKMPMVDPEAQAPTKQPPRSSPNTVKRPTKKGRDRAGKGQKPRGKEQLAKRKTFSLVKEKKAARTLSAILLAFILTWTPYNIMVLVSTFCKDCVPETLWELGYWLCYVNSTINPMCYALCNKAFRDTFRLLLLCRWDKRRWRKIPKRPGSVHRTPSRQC
Outline: (§1)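 Two modes: direct compound addition for agonism, or 15 min compound pre-incubation (or co-application) before carbachol at EC80 for inhibition. Calcium signal from Fluo-3 AM or Calcium 3 dye in CHO cells, 1 mM probenecid, pH 7.4, read 60 sec at 488/540 nm; DMSO 0.5% final.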

[2] = target: T2, M4 muscarinic receptor (Homo sapiens, UniProt P08173); test: Functional mobilization of intracellular calcium (FLIPR) in M4-CHO cells; assay type: cell-based; conditions: M4 receptor, calcium mobilization; for Emax: read-out: M4 Efficacy
T2 construct: expressed in transfected cells; host or cells: CHO (M4-CHO)
T2 sequence (P08173 1-479): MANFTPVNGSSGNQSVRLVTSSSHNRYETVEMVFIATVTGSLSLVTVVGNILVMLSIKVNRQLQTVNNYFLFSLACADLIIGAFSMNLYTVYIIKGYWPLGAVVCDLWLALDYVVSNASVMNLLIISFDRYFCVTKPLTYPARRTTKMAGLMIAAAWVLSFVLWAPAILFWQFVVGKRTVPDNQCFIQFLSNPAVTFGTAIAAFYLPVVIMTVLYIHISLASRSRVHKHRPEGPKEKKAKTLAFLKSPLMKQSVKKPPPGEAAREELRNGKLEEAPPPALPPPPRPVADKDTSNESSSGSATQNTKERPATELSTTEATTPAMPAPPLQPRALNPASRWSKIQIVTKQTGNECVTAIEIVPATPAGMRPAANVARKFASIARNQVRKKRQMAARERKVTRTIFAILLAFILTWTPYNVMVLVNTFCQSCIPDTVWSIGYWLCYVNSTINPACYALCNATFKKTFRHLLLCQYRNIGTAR
Outline: as §1

Compound	M1 Activity [1]	Emax [1]	M4 Activity [2]	Emax [2]	M1 Efficacy [1]	M4 Efficacy [2]
CCOC(=O)N1CCC(N2CCC3(CC2)CN(C(=O)c2ccno2)c2ccc(F)cc23)CC1 [compound 321]	xx (activity was measured to be between 0.1 μM and 1.0 μM)	65 to 85%	x (activity was measured to be greater than 1.0 μM)	65 to 85%		
CCOC(=O)N1C2CCC1CC(N1CCC3(CC1)CN(C(C)=O)c1c(F)cccc13)C2 (stereo not shown) [compound 322]	xx (activity was measured to be between 0.1 μM and 1.0 μM)	< 65%	xxx (activity was measured to be less than 0.1 μM)	> 85%		
CC(=O)N[C@@H]1CC2(CCN([C@@H]3C[C@H]4CC[C@@H]3C4)CC2)c2ccccc21 [compound 323]	xx (activity was measured to be between 0.1 μM and 1.0 μM)	65 to 85%	x (activity was measured to be greater than 1.0 μM)	65 to 85%		
CCCC(=O)N1CC2(CCN(C3CCN(C(=O)OCC)CC3)CC2)c2cc(F)ccc21 [compound 324]	xx (activity was measured to be between 0.1 μM and 1.0 μM)	65 to 85%	x (activity was measured to be greater than 1.0 μM)	65 to 85%		
Fc1ccc2c(c1)C1(CCN(C3CCCCC3)CC1)CN2 [compound 325]	x (activity was measured to be greater than 1.0 μM)	65 to 85%	x (activity was measured to be greater than 1.0 μM)	< 65%		
CCOC(=O)N[C@H]1CC2(CCN(C[C@H]3C[C@H]4CC[C@H]3C4)CC2)c2ccccc21 [compound 326]	x (activity was measured to be greater than 1.0 μM)	< 65%	x (activity was measured to be greater than 1.0 μM)	< 65%		
CCOC(=O)N1CCC(CN2CCC3(CC2)C(=O)N(C)c2ccccc23)CC1 [compound 327]	x (activity was measured to be greater than 1.0 μM)	< 65%	x (activity was measured to be greater than 1.0 μM)	< 65%		
CCCC1CCC(N2CCC3(CC2)CNc2ccc(F)cc23)CC1 (stereo not shown) [compound 328]	xx (activity was measured to be between 0.1 μM and 1.0 μM)	< 65%	x (activity was measured to be greater than 1.0 μM)	65 to 85%		
CCCOC(=O)N1C2CCC1CC(N1CCC3(CC1)CN(C(=O)OC1CCC1)c1ccc(F)cc13)C2 (stereo not shown) [compound 329]	xxx (activity was measured to be less than 0.1 μM)	65 to 85%	x (activity was measured to be greater than 1.0 μM)	< 65%		
CCOC(=O)N1CCC(N2CCC3(CC2)CN(C(=O)c2ccc(C)cc2)c2ccc(F)cc23)CC1 [compound 330]	x (activity was measured to be greater than 1.0 μM)	< 65%	x (activity was measured to be greater than 1.0 μM)	< 65%		
CCOC(=O)N1CCC(N2CCC3(CC2)CN(C(=O)c2ccccn2)c2ccc(F)cc23)CC1 [compound 331]	xx (activity was measured to be between 0.1 μM and 1.0 μM)	< 65%	x (activity was measured to be greater than 1.0 μM)	< 65%		
CCOC(=O)N1C2CCC1CC(CN1CCC3(CC1)CNc1ccc(C)cc13)C2 (stereo not shown) [compound 332]	x (activity was measured to be greater than 1.0 μM)	< 65%	x (activity was measured to be greater than 1.0 μM)	< 65%		
Clc1ccc2c(c1)C1(CCN(C3CCCCCC3)CC1)CN2 [compound 333]	x (activity was measured to be greater than 1.0 μM)	< 65%	x (activity was measured to be greater than 1.0 μM)	< 65%		
CCCC1CCC(N2CCC3(CC2)CNc2ccccc23)CC1 (stereo not shown) [compound 334]	x (activity was measured to be greater than 1.0 μM)	< 65%	x (activity was measured to be greater than 1.0 μM)	< 65%		
CCOC(=O)N1CCC(N2CCC3(CC2)CN(C(=O)c2cc(C)oc2C)c2ccc(F)cc23)CC1 [compound 335]	x (activity was measured to be greater than 1.0 μM)	< 65%	x (activity was measured to be greater than 1.0 μM)	< 65%		
O=C(O[C@@H]1CCOC1)N1C2CCC1CC(N1CCC3(CC1)C(=O)Nc1ccccc13)C2 (stereo partly shown) [compound 336]	x (activity was measured to be greater than 1.0 μM)	< 65%	x (activity was measured to be greater than 1.0 μM)	< 65%		
CC(=O)N[C@H]1CC2(CCN(C3CC4CCC(C4)C3)CC2)c2ccccc21 (stereo partly shown) [compound 337]	x (activity was measured to be greater than 1.0 μM)	< 65%	x (activity was measured to be greater than 1.0 μM)	< 65%		
O=C(O[C@@H]1CCOC1)N1C2CCC1CC(N1CCC3(CC1)COc1ccc(F)cc13)C2 (stereo partly shown) [compound 338]	x (activity was measured to be greater than 1.0 μM)	< 65%	x (activity was measured to be greater than 1.0 μM)	< 65%		
CC(=O)N(C)[C@@H]1CC2(CCN(C[C@H]3C[C@H]4CC[C@H]3C4)CC2)c2ccccc21 [compound 339]	x (activity was measured to be greater than 1.0 μM)	< 65%	x (activity was measured to be greater than 1.0 μM)	< 65%		
CCOC(=O)N1CCC(N2CCC3(CC2)CN(C(C)=O)c2ccc(OC)cc23)CC1 [compound 340]	xx (activity was measured to be between 0.1 μM and 1.0 μM)	< 65%	x (activity was measured to be greater than 1.0 μM)	< 65%		
CCCC1CCC(N2CCC3(CC2)CNc2ccc(Cl)cc23)CC1 (stereo not shown) [compound 341]	x (activity was measured to be greater than 1.0 μM)	< 65%	x (activity was measured to be greater than 1.0 μM)	< 65%		
c1ccc2c(c1)NCC21CCN(CC2CCCCC2)CC1 [compound 342]	xxx (activity was measured to be less than 0.1 μM)	65 to 85%	xx (activity was measured to be between 0.1 μM and 1.0 μM)	65 to 85%		
CC(=O)N1CC2(CCN(C3CCCC3)CC2)c2cc(F)ccc21 [compound 343]	xxx (activity was measured to be less than 0.1 μM)	65 to 85%	xxx (activity was measured to be less than 0.1 μM)	< 65%		
CCOC(=O)N1C2CCC1CC(N1CCC3(CC1)CN(C(=O)O[C@@H]1CCOC1)c1ccc(F)cc13)C2 (stereo partly shown) [compound 344]	xxx (activity was measured to be less than 0.1 μM)		xx (activity was measured to be between 0.1 μM and 1.0 μM)		xx (efficacy was calculated to be between 85% and 65%)	x (efficacy was calculated to be less than 65%)
CC(C)OC(=O)N1C2CCC1CC(N1CCC3(CC1)CN(C(=O)C1CC1)c1ccc(F)cc13)C2 (stereo not shown) [compound 345]	xxx (activity was measured to be less than 0.1 μM)	< 65%	xx (activity was measured to be between 0.1 μM and 1.0 μM)	< 65%		
CC#CCOC(=O)N1CC2(CCN(C3CCN(C(=O)OCC)CC3)CC2)c2cc(F)ccc21 [compound 346]	xxx (activity was measured to be less than 0.1 μM)	< 65%	x (activity was measured to be greater than 1.0 μM)	< 65%		
CCOC(=O)N(C)[C@H]1CC2(CCN(C[C@H]3C[C@H]4CC[C@H]3C4)CC2)c2ccccc21 [compound 347]	xxx (activity was measured to be less than 0.1 μM)	65 to 85%	xx (activity was measured to be between 0.1 μM and 1.0 μM)	> 85%		
Clc1ccc2c(c1)C1(CCN(C3CCC4CCC3C4)CC1)CN2 (stereo not shown) [compound 348]	xxx (activity was measured to be less than 0.1 μM)	> 85%	xx (activity was measured to be between 0.1 μM and 1.0 μM)	> 85%		
